Assay results published in BindingDB's records for patent US20250136619 (Halda Therapeutics OPCO, 2025).

Molecular target: Tyrosine-protein kinase BTK (Homo sapiens, UniProt Q06187)
Assay: Assay for Binding Affinity to BTK
Protocol: Compounds were tested using a KdELECT assay. Kinase-tagged T7 phage strains were prepared in an E. coli host derived from the BL21 strain. E. coli were grown to log-phase and infected with T7 phage and incubated with shaking at 32° C. until lysis. The lysates were centrifuged and filtered to remove cell debris. The remaining kinases were produced in HEK-293 cells and subsequently tagged with DNA for qPCR detection. Streptavidin-coated magnetic beads were treated with biotinylated small molecule ligands for 30 minutes at room temperature to generate affinity resins for kinase assays. The liganded beads were blocked with excess biotin and washed with blocking buffer (SeaBlock (Pierce), 1% BSA, 0.05% Tween 20, 1 mM DTT) to remove unbound ligand and to reduce non-specific binding. Binding reactions were assembled by combining kinases, liganded affinity beads, and test compounds in 1× binding buffer (20% SeaBlock, 0.17×PBS, 0.05% Tween 20, 6 mM DTT). Test compounds were prepared as 111X stocks in 100% DMSO. Kd values were determined using an 11-point 3-fold compound dilution series with three DMSO control points. All compounds for Kd measurements are distributed by acoustic transfer (non-contact dispensing) in 100% DMSO. The compounds were then diluted directly into the assays such that the final concentration of DMSO was 0.9%. […] The kinase concentration in the eluates was measured by qPCR.

Sequence of Tyrosine-protein kinase BTK (Q06187 whole entry): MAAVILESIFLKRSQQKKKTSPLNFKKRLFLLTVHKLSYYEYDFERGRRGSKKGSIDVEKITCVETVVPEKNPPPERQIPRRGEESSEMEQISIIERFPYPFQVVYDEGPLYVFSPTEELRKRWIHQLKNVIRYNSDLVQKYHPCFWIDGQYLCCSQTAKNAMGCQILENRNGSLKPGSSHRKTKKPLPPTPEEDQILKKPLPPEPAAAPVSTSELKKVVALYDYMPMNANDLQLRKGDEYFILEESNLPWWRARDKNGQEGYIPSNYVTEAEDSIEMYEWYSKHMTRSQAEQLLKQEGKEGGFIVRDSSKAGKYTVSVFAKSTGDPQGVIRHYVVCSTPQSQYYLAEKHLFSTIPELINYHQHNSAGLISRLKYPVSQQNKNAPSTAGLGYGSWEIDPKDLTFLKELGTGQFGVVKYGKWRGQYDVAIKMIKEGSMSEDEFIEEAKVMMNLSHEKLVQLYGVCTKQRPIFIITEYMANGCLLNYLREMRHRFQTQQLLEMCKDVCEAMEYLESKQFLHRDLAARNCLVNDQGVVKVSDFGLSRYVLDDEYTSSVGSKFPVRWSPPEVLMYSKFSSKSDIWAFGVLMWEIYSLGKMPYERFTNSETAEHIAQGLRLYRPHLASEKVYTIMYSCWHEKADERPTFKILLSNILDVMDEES

Kd: < 50 nM
Compound: CCc1cnn2c(NCc3ccc(OCCOCCOCCOCCOCCOCCOCCOCCOCCOC/C=C/C(=O)N4CCC[C@@H](n5nc(-c6ccc(Oc7ccccc7)cc6)c6c(N)ncnc65)C4)nc3)cc(N3CCCC[C@H]3CCO)nc12 [US20250136619, Compound I-47]
